Results reported in patent publication US12350270B2, “Antimalarial agents” (Merck Sharp & Dohme LLC, priority 2019, dated 2025).
pEC50: −log10 of the molar value.

System: parasites (ring stage, in human red blood cell culture)
Experiment: Parasite LDH growth assay (antiparasite potency, Parasite Assay)
Format: cell-based, Plasmodium falciparum
Details: 0.7% rings, 2% haematocrit, 72 hours at 37° C., LDH readout of parasite growth
Experimental: Assessing Antiparasite Potency in a Parasite LDH Growth Assay (Parasite Assay)
The parasite stock was maintained at 4% haematocrit in RPMI-Hepes media buffered with sodium bicarbonate and supplemented with 5% heat inactivated human serum and 0.5% albumax.
On the day of assay set up, a blood smear of the parasite culture was Giemsa stained and counted. The parasitemia was adjusted to 0.7% rings and the haematocrit was diluted to 2% in RPMI-Hepes media buffered with sodium bicarbonate and supplemented with 5% heat inactivated human serum and 0.5% albumax. 30 ul of diluted parasites are then added into 10 ul of media+compound in pre-prepared Greiner TC assay plates. Parasite assay plates were placed in gassed humidified boxes in single layer and allowed to incubate at 37° C. for 72 hours. After 72 hours growth, assay plates are sealed with parafilm and frozen flat, in single file at −80° C. overnight. On the following day, assay plates are allowed to thaw at room temperature for 4 hours to which an LDH assay is performed to measure parasite growth.

Row | SMILES | pEC50
1 | CC[C@]1(C)CC(=O)N([C@@H]2CCOc3ccc(C(=O)NC4c5cc(F)ccc5OCC4(C)O)cc32)C(=N)N1 (single isomer, unassigned) [Example 190C] | 8.31
2 | CC[C@]1(C)CC(=O)N([C@@H]2CCOc3ccc(C(=O)NC4c5c(F)cccc5OCC4(C)O)cc32)C(=N)N1 (single isomer, unassigned) [Example 193A] | 7.02
3 | CC[C@]1(C)CC(=O)N([C@@H]2CCOc3ccc(C(=O)NC4c5c(F)cccc5OCC4(C)O)cc32)C(=N)N1 (single isomer, unassigned) [Example 193B] | 9.10
4 | CC[C@]1(C)CC(=O)N([C@@H]2CCOc3ccc(C(=O)NC4c5c(F)cccc5OCC4(C)O)cc32)C(=N)N1 (single isomer, unassigned) [Example 193C] | 7.71
5 | COCC1(C)Oc2ccc(C(=O)N[C@H]3CC(C)(C)Oc4ccccc43)cc2C1N1C(=N)NC(C)(C)CC1=O (single isomer, unassigned) [Example 214A] | 8.09
6 | COCC1(C)Oc2ccc(C(=O)N[C@H]3CC(C)(C)Oc4ccccc43)cc2C1N1C(=N)NC(C)(C)CC1=O (single isomer, unassigned) [Example 214B] | 6.59
7 | CCC1(CC)CC(=O)N([C@@H]2CCOc3ccc(C(=O)NC4c5cc(F)ccc5OCC4(C)O)cc32)C(=N)N1 (single isomer, unassigned) [Example 226A] | 8.59
8 | CCC1(CC)CC(=O)N([C@@H]2CCOc3ccc(C(=O)NC4c5cc(F)ccc5OCC4(C)O)cc32)C(=N)N1 (single isomer, unassigned) [Example 226B] | 7.16
9 | CCC1(CC)CC(=O)N([C@@H]2CCOc3ccc(C(=O)NC4c5cc(F)ccc5OCC4(C)O)cc32)C(=N)N1 (single isomer, unassigned) [Example 226C] | 6.56
10 | CCC1(CC)CC(=O)N([C@@H]2CCOc3ccc(C(=O)NC4c5cc(F)ccc5OCC4(C)O)cc32)C(=N)N1 (single isomer, unassigned) [Example 226D] | 9.00
11 | CC1(C)CC(=O)N([C@@H]2CCOc3ccc(C(=O)NC4c5ccccc5OCC4(O)C(F)(F)F)cc32)C(=N)N1 (single isomer, unassigned) [Example 234A] | 7.65
12 | CC1(C)CC(=O)N([C@@H]2CCOc3ccc(C(=O)NC4c5ccccc5OCC4(O)C(F)(F)F)cc32)C(=N)N1 (single isomer, unassigned) [Example 234B] | 8.41
13 | CC1(C)CC(=O)N([C@@H]2CCOc3ccc(C(=O)NC4c5ccccc5OCC4(O)C(F)(F)F)cc32)C(=N)N1 (single isomer, unassigned) [Example 234C] | 7.36
14 | CCC1(CC)CC(=O)N([C@@H]2CCOc3ccc(C(=O)NC4c5ccccc5OC(C)(C)C4(C)O)cc32)C(=N)N1 (single isomer, unassigned) [Example 242A] | 9.22
15 | CCC1(CC)CC(=O)N([C@@H]2CCOc3ccc(C(=O)NC4c5ccccc5OC(C)(C)C4(C)O)cc32)C(=N)N1 (single isomer, unassigned) [Example 242B] | 7.98
16 | CCC1(CC)CC(=O)N(C2c3cc(C(=O)N[C@@H]4c5ccccc5OC(C)(C)[C@H]4O)ccc3CC2OC)C(=N)N1 (single isomer, unassigned) [Example 251A] | 9.40

Row | SMILES | pEC50
17 | CCC1(CC)CC(=O)N(C2c3cc(C(=O)N[C@@H]4c5ccccc5OC(C)(C)[C@H]4O)ccc3CC2OC)C(=N)N1 (single isomer, unassigned) [Example 251B] | 8.82
18 | CCC1(CC)CC(=O)N(C2c3cc(C(=O)N[C@@H]4c5ccccc5OC(C)(C)[C@H]4O)ccc3CC2OC)C(=N)N1 (single isomer, unassigned) [Example 251C] | 7.07
19 | CCC1(CC)CC(=O)N([C@@H]2CCOc3ccc(C(=O)NC4c5ccc(OC)cc5OCC4(C)O)cc32)C(=N)N1 (single isomer, unassigned) [Example 258A] | 7.07
20 | CCC1(CC)CC(=O)N([C@@H]2CCOc3ccc(C(=O)NC4c5ccc(OC)cc5OCC4(C)O)cc32)C(=N)N1 (single isomer, unassigned) [Example 258B] | 8.62
21 | CCC1(CC)CC(=O)N([C@@H]2CCOc3ccc(C(=O)NC4c5ccc(OC)cc5OCC4(C)O)cc32)C(=N)N1 (single isomer, unassigned) [Example 258C] | 6.65
22 | CCC1(CC)CC(=O)N([C@@H]2CCOc3ccc(C(=O)NC4c5ccc(OC)cc5OCC4(C)O)cc32)C(=N)N1 (single isomer, unassigned) [Example 258D] | 8.17
23 | CCC1(CC)CC(=O)N([C@@H]2CCOc3ccc(C(=O)NC4c5c(OC)cccc5OCC4(C)O)cc32)C(=N)N1 (single isomer, unassigned) [Example 259A] | 8.26
24 | CCC1(CC)CC(=O)N([C@@H]2CCOc3ccc(C(=O)NC4c5c(OC)cccc5OCC4(C)O)cc32)C(=N)N1 (single isomer, unassigned) [Example 259B] | 7.62
25 | CCC1(CC)CC(=O)N([C@@H]2CCOc3ccc(C(=O)NC4c5c(OC)cccc5OCC4(C)O)cc32)C(=N)N1 (single isomer, unassigned) [Example 259C] | 8.44
26 | CCC1(CC)CC(=O)N([C@@H]2CCOc3ccc(C(=O)NC4c5c(OC)cccc5OCC4(C)O)cc32)C(=N)N1 (single isomer, unassigned) [Example 259D] | 7.97
27 | CCC1(CC)CC(=O)N([C@@H]2CCOc3ccc(C(=O)NC4c5ccccc5CC4(O)C(F)(F)F)cc32)C(=N)N1 (single isomer, unassigned) [Example 272A] | 7.20
28 | CCC1(CC)CC(=O)N([C@@H]2CCOc3ccc(C(=O)NC4c5ccccc5CC4(O)C(F)(F)F)cc32)C(=N)N1 (single isomer, unassigned) [Example 272B] | 7.84
29 | CCC1(CC)CC(=O)N([C@@H]2CCOc3ccc(C(=O)NC4c5ccccc5CC4(O)C(F)(F)F)cc32)C(=N)N1 (single isomer, unassigned) [Example 272C] | 9.05
30 | CCC1(CC)CC(=O)N([C@@H]2CCOc3ccc(C(=O)NC4c5ccccc5CC4(O)C(F)(F)F)cc32)C(=N)N1 (single isomer, unassigned) [Example 272D] | 8.64
31 | COCC1(C)CC(N2C(=N)NC(C)(C)CC2=O)c2cc(C(=O)N[C@@H]3c4ccccc4OC(C)(C)[C@H]3O)ccc2O1 (single isomer, unassigned) [Example 282A] | 8.11
32 | COCC1(C)CC(N2C(=N)NC(C)(C)CC2=O)c2cc(C(=O)N[C@@H]3c4ccccc4OC(C)(C)[C@H]3O)ccc2O1 (single isomer, unassigned) [Example 282B] | 7.39

Same assay, conditions: Plasmodium falciparum, Erythrocyte, 72 h, 0.7% rings, 2% haematocrit, 72 hours at 37° C., LDH readout of parasite growth

Row | SMILES | pEC50
33 | CCC1(CC)CC(=O)N([C@H]2c3cc(C(=O)NC4c5ccccc5C(F)(F)[C@@H]4O)ccc3O[C@@]2(C)COC)C(=N)N1 (stereo in doubt) [Example 291, (2R,3S)-3-(4,4-diethyl-2-imino-6-oxo-hexahydropyrimidin-1-yl)-N-[(1S,2R)-3,3-difluoro-2-hydroxy-indan-1-yl]-2-(methoxymethyl)-2-methyl-3H-benzofuran-5-carboxamide] | 6.62
34 | CCC1(CC)CC(=O)N(C2CCOc3ccc(C(=O)N[C@H]4CC(C)(C)Oc5ccccc54)cc32)C(=N)N1 (stereo partly drawn) [Example 1A, 4-(4,4-diethyl-2-imino-6-oxotetrahydropyrimidin-1(2H)-yl)-N—((S)-2,2-dimethylchroman-4-yl)chroman-6-carboxamide] | 9.30
35 | CCC1(CC)CC(=O)N(C2CCOc3ccc(C(=O)N[C@@H]4c5ccccc5OC(C)(C)[C@H]4O)cc32)C(=N)N1 (stereo partly drawn) [Example 2A, 4-(4,4-diethyl-2-imino-6-oxotetrahydropyrimidin-1(2H)-yl)-N-((3S,4R)-3-hydroxy-2,2-dimethylchroman-4-yl)chroman-6-carboxamide] | 9.30
36 | CCC1(CC)CC(=O)N([C@@H]2CCOc3ccc(C(=O)N[C@H]4CCOc5ccccc54)cc32)C(=N)N1 [Example 3A, (R)-N-((S)-chroman-4-yl)-4-(4,4-diethyl-2-imino-6-oxotetrahydropyrimidin-1(2H)-yl)chromane-6-carboxamide] | 8.66
37 | CCC1(CC)CC(=O)N([C@@H]2CCOc3ccc(C(=O)N[C@@H](C)c4ccccc4)cc32)C(=N)N1 [Example 4A, (R)-4-(4,4-diethyl-2-imino-6-oxotetrahydropyrimidin-1(2H)-yl)-N-((S)-1-phenylethyl)chromane-6-carboxamide] | 7.06
38 | CCC1(CC)CC(=O)N([C@@H]2CCOc3ccc(C(=O)N[C@@H]4c5ccccc5C[C@H]4O)cc32)C(=N)N1 [Example 5A, (R)-4-(4,4-diethyl-2-imino-6-oxotetrahydropyrimidin-1(2H)-yl)-N-((1R,2R)-2-hydroxy-2,3-dihydro-1H-inden-1-yl)chromane-6-carboxamide] | 8.23
39 | CCC1(CC)CC(=O)N([C@@H]2CCOc3ccc(C(=O)N[C@H]4C[C@H](C(F)(F)F)Oc5ccccc54)cc32)C(=N)N1 [Example 6A, (R)-4-(4,4-diethyl-2-imino-6-oxotetrahydropyrimidin-1(2H)-yl)-N-((2R,4S)-2-(trifluoromethyl)chroman-4-yl)chromane-6-carboxamide] | 8.96
40 | CCC1(CC)CC(=O)N([C@@H]2CCOc3ccc(C(=O)N[C@@H]4C[C@@H](C(F)(F)F)Oc5ccccc54)cc32)C(=N)N1 [Example 6B, (R)-4-(4,4-diethyl-2-imino-6-oxotetrahydropyrimidin-1(2H)-yl)-N-((2S,4R)-2-(trifluoromethyl)chroman-4-yl)chromane-6-carboxamide] | 8.06
